According to PubChem BioAssay AID2060358 (Molecular Pharmacology Branch, DTP, NCI, 2025):

Tested on: 254851-301-R-J1-PDC spheroids, viability % test/control
Experiment: Anticancer human tumor 254851-301-R-J1-PDC patient-derived colon carcinoma cell line growth inhibition [TAK]
Details: spheroids with HUVEC and MSC; for IC50: curve of first compound; for viability, T/C: stronger effect = lower value; active = viability on the fitted dose curve at most 10% of control; inactive = the rest
Procedure, shortened: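 Drug combinations, each paired with TAK-243 or ipatasertib, were tested on multi-cell spheroids of 60% malignant cells, 25% HUVEC and 15% hMSC. Top concentrations were at or near the clinical Cmax (10 microM if undetermined), decreasing by half-log; viability is given as % test/control.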

[1] = second compound 0.3 µM, first compound 0.0316 µM
[2] = second compound 0.3 µM, first compound 0.1 µM
[3] = second compound 0.3 µM, first compound 0.316 µM
[4] = second compound 0.3 µM, first compound 1 µM
[5] = second compound 0.3 µM, first compound 3.16 µM
[6] = second compound 0.3 µM, first compound 10 µM
[7] = second compound 0.949 µM, first compound 0.0316 µM
[8] = second compound 0.949 µM, first compound 0.1 µM
[9] = second compound 0.949 µM, first compound 0.316 µM
[10] = second compound 0.949 µM, first compound 1 µM
[11] = second compound 0.949 µM, first compound 3.16 µM
[12] = second compound 0.949 µM, first compound 10 µM
[13] = second compound 3 µM, first compound 0.0316 µM
[14] = second compound 3 µM, first compound 0.1 µM
[15] = second compound 3 µM, first compound 0.316 µM
[16] = second compound 3 µM, first compound 1 µM
[17] = second compound 3 µM, first compound 3.16 µM
[18] = second compound 3 µM, first compound 10 µM
[19] = second compound 9.49 µM, first compound 0.0316 µM
[20] = second compound 9.49 µM, first compound 0.1 µM
[21] = second compound 9.49 µM, first compound 0.316 µM
[22] = second compound 9.49 µM, first compound 1 µM
[23] = second compound 9.49 µM, first compound 3.16 µM
[24] = second compound 9.49 µM, first compound 10 µM
[25] = second compound 30 µM, first compound 0.0316 µM
[26] = second compound 30 µM, first compound 0.1 µM
[27] = second compound 30 µM, first compound 0.316 µM
[28] = second compound 30 µM, first compound 1 µM
[29] = second compound 30 µM, first compound 3.16 µM
[30] = second compound 30 µM, first compound 10 µM
[31] = second compound 0.3 µM, first compound 0.000316 µM
[32] = second compound 0.3 µM, first compound 0.001 µM
[33] = second compound 0.3 µM, first compound 0.00316 µM
[34] = second compound 0.3 µM, first compound 0.01 µM
[35] = second compound 0.949 µM, first compound 0.000316 µM
[36] = second compound 0.949 µM, first compound 0.001 µM
[37] = second compound 0.949 µM, first compound 0.00316 µM
[38] = second compound 0.949 µM, first compound 0.01 µM
[39] = second compound 3 µM, first compound 0.000316 µM
[40] = second compound 3 µM, first compound 0.001 µM
[41] = second compound 3 µM, first compound 0.00316 µM
[42] = second compound 3 µM, first compound 0.01 µM
[43] = second compound 9.49 µM, first compound 0.000316 µM
[44] = second compound 9.49 µM, first compound 0.001 µM
[45] = second compound 9.49 µM, first compound 0.00316 µM
[46] = second compound 9.49 µM, first compound 0.01 µM
[47] = second compound 30 µM, first compound 0.000316 µM
[48] = second compound 30 µM, first compound 0.001 µM
[49] = second compound 30 µM, first compound 0.00316 µM
[50] = second compound 30 µM, first compound 0.01 µM
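Also: spheroids exposed to drugs for seven days before viability readout.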
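For viability, T/C in this document: 100% = DMSO vehicle control viability.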

CC(C)(C)c1nc(-c2cccc(NS(=O)(=O)c3c(F)cccc3F)c2F)c(-c2ccnc(N)n2)s1 + CC(C)NCC(C(=O)N1CCN(c2ncnc3c2C(C)CC3O)CC1)c1ccc(Cl)cc1
> 10 µM: IC50 (second compound 0.3 µM) | IC50 (second compound 0.949 µM) | IC50 (second compound 3 µM) | IC50 (second compound 9.49 µM) | IC50 (second compound 30 µM)
inactive: viability, T/C [1] 114% | viability, T/C [2] 103% | viability, T/C [3] 87.3% | viability, T/C [4] 84.8% | viability, T/C [5] 77% | viability, T/C [6] 72% | viability, T/C [7] 115% | viability, T/C [8] 104% | viability, T/C [9] 95.2% | viability, T/C [10] 81% | viability, T/C [11] 76% | viability, T/C [12] 75.4% | viability, T/C [13] 106% | viability, T/C [14] 107% | viability, T/C [15] 88.1% | viability, T/C [16] 79.4% | viability, T/C [17] 75.6% | viability, T/C [18] 63.8% | viability, T/C [19] 101% | viability, T/C [20] 105% | viability, T/C [21] 92.5% | viability, T/C [22] 78.4% | viability, T/C [23] 71.8% | viability, T/C [24] 64.7% | viability, T/C [25] 79% | viability, T/C [26] 81.7% | viability, T/C [27] 83.9% | viability, T/C [28] 69.1% | viability, T/C [29] 59.7% | viability, T/C [30] 54.6%

CC(C)CC(NC(=O)CNC(=O)c1cc(Cl)ccc1Cl)B1OC(=O)CC(CC(=O)O)(C(=O)O)O1 (stereo not given) + CC(C)NCC(C(=O)N1CCN(c2ncnc3c2C(C)CC3O)CC1)c1ccc(Cl)cc1
inactive: viability, T/C [31] 103% | viability, T/C [32] 100% | viability, T/C [33] 95.8% | viability, T/C [34] 101% | viability, T/C [1] 73.7% | viability, T/C [2] 22.2% | viability, T/C [35] 98.6% | viability, T/C [36] 102% | viability, T/C [37] 95.3% | viability, T/C [38] 95% | viability, T/C [7] 67.3% | viability, T/C [8] 23.2% | viability, T/C [39] 95.8% | viability, T/C [40] 107% | viability, T/C [41] 98.9% | viability, T/C [42] 102% | viability, T/C [13] 70.2% | viability, T/C [14] 17.9% | viability, T/C [43] 96.8% | viability, T/C [44] 101% | viability, T/C [45] 97.7% | viability, T/C [46] 95.1% | viability, T/C [19] 76.6% | viability, T/C [20] 24.5% | viability, T/C [47] 78.2% | viability, T/C [48] 63% | viability, T/C [49] 81.4% | viability, T/C [50] 86% | viability, T/C [25] 80% | viability, T/C [26] 24.4%
0.0497 µM: IC50 (second compound 0.949 µM)
0.0492 µM: IC50 (second compound 3 µM)
0.0576 µM: IC50 (second compound 30 µM)
0.0569 µM: IC50 (second compound 9.49 µM)
0.0537 µM: IC50 (second compound 0.3 µM)

CC(C)n1nc(-c2ccc3oc(N)nc3c2)c2c(N)ncnc21 + CC(C)NCC(C(=O)N1CCN(c2ncnc3c2C(C)CC3O)CC1)c1ccc(Cl)cc1
0.0419 µM: IC50 (second compound 0.3 µM)
0.0444 µM: IC50 (second compound 3 µM)
inactive: viability, T/C [31] 119% | viability, T/C [32] 101% | viability, T/C [33] 93.3% | viability, T/C [34] 78.4% | viability, T/C [1] 54.3% | viability, T/C [2] 32.4% | viability, T/C [35] 102% | viability, T/C [36] 101% | viability, T/C [37] 94.7% | viability, T/C [38] 78.3% | viability, T/C [7] 49.3% | viability, T/C [8] 33.6% | viability, T/C [39] 100% | viability, T/C [40] 105% | viability, T/C [41] 85.2% | viability, T/C [42] 72.7% | viability, T/C [13] 57.5% | viability, T/C [14] 36.2% | viability, T/C [43] 96.6% | viability, T/C [44] 109% | viability, T/C [45] 90.8% | viability, T/C [46] 76.6% | viability, T/C [19] 53% | viability, T/C [20] 31.9% | viability, T/C [47] 88.1% | viability, T/C [48] 86.5% | viability, T/C [49] 84.5% | viability, T/C [50] 69.6% | viability, T/C [25] 44.9% | viability, T/C [26] 31.1%
0.0311 µM: IC50 (second compound 0.949 µM)
0.0248 µM: IC50 (second compound 30 µM)
0.0357 µM: IC50 (second compound 9.49 µM)

CCCS(=O)(=O)Nc1ccc(F)c(C(=O)c2c[nH]c3ncc(-c4ccc(Cl)cc4)cc23)c1F + CC(C)NCC(C(=O)N1CCN(c2ncnc3c2C(C)CC3O)CC1)c1ccc(Cl)cc1
> 100 µM: IC50 (second compound 0.3 µM) | IC50 (second compound 0.949 µM) | IC50 (second compound 3 µM) | IC50 (second compound 9.49 µM) | IC50 (second compound 30 µM)
inactive: viability, T/C [3] 92.5% | viability, T/C [4] 90.3% | viability, T/C [5] 63.9% | viability, T/C [6] 68.4% | viability, T/C (second compound 0.3 µM, first compound 31.6 µM) 38.1% | viability, T/C (second compound 0.3 µM, first compound 100 µM) 85.7% | viability, T/C [9] 99.2% | viability, T/C [10] 95.1% | viability, T/C [11] 79.4% | viability, T/C [12] 64.8% | viability, T/C (second compound 0.949 µM, first compound 31.6 µM) 30.2% | viability, T/C (second compound 0.949 µM, first compound 100 µM) 76.8% | viability, T/C [15] 79.7% | viability, T/C [16] 88.8% | viability, T/C [17] 70.3% | viability, T/C [18] 67.9% | viability, T/C (second compound 3 µM, first compound 31.6 µM) 20.2% | viability, T/C (second compound 3 µM, first compound 100 µM) 82.5% | viability, T/C [21] 95.3% | viability, T/C [22] 85.3% | viability, T/C [23] 71% | viability, T/C [24] 51.5% | viability, T/C (second compound 9.49 µM, first compound 31.6 µM) 52.3% | viability, T/C (second compound 9.49 µM, first compound 100 µM) 83% | viability, T/C [27] 91.5% | viability, T/C [28] 92.8% | viability, T/C [29] 82.6% | viability, T/C [30] 51.8% | viability, T/C (second compound 30 µM, first compound 31.6 µM) 26.7% | viability, T/C (second compound 30 µM, first compound 100 µM) 80.7%
